According to patent US20090227619A1, “Harmine derivatives, intermediates used in their preparations, preparation processes and use therefo” (priority 2003, published 2009):
Where two headings read alike, the source gives them in different places.

What was measured:
NIH3T3 = assay: In vitro cytotoxicity, IC50 by MTT method, NIH3T3; format: cell-based; conditions: Mus musculus
Procedure: (§1) Culture medium powder RPMI1640 was dissolved in a proper amount of tri-distilled water according to the instruction of the product. […] It was the basic culture solution. The complete culture solution was added with FBS having a final concentration of 10%, 100 U/ml penicillin and 100 µg/ml streptomycin. The solution was fully stirred by a magnetic blender, and the pH of the solution was adjusted to 6.8-7.0. The volume was kept constant. After being filtered and disinfected, the solution was kept into several containers which were sealed and stored at 4° C.
(§2) The cells were placed in a culture dish followed by the addition of complete culture liquid RPMI1640 and then cultured in a incubator comprising 5% CO2 at 37° C. In the exponential growth phase, the cells grew vigorously. If the culture liquid became yellow, the liquid should be replaced instantly.
(§3) The cells, at a concentration of 10^5/ml, were inoculated at a 96-pore culture plate. In each pore, 100 μl cells were inoculated. The cells were placed in a CO2 incubator until the cells were in the logarithmic growth phase. The samples to be tested were added according to the preset concentration gradient. For each gradient, the test was conducted at least three times. An equivalent amount of solvent for dissolving the samples was added in the control group. After 48 h of culture, each pore was added 20 μl MTT (5 mg/ml). The cells were cultured at 37° C. for 4 h. After the supernatant was carefully removed, 100 μl DMSO was added in each pore. The plate was agitated for about 10 minutes such that the precipitates were dissolved. After that, OD value was identified with a Microplate Reader at the wavelength of 490 nm. The survival rate of the cells at various concentrations was calculated according to the following formula:
(§4) Survival rate %=average OD value of the sample group/average OD value of the control group×100%
(§5) Plots of log survival rate of the cells vs. concentration of the medicament were constructed, and the IC50 value of each sample was calculated according to graphing methods.

PLA-801 = assay: In vitro cytotoxicity, IC50 by MTT method, PLA-801; format: cell-based
Procedure: as §1, §2, §3, §4, §5

S180 sarcoma = conditions: S180 sarcoma; for Body weight of the animals, beginning, First time / Body weight of the animals, end, First time / Inhibition rate, First time / Weight of the tumor X ± SD, First time: ip × 10qd; for Inhibition rate (%) S180 sarcomata: comparison table 43, in vivo
Lovo = assay: In vitro cytotoxicity, IC50 by MTT method, Lovo; format: cell-based; conditions: Homo sapiens
Procedure: as §1, §2, §3, §4, §5

HepG2 = assay: In vitro cytotoxicity, IC50 by MTT method, HepG2; format: cell-based, human; conditions: Homo sapiens
Procedure: as §1, §2, §3, §4, §5

Hela = assay: In vitro cytotoxicity, IC50 by MTT method, Hela; format: cell-based; conditions: Homo sapiens
Procedure: as §1, §2, §3, §4, §5

BGC-823 = assay: In vitro cytotoxicity, IC50 by MTT method, BGC-823; format: cell-based; conditions: Homo sapiens, BGC-823
Procedure: as §1, §2, §3, §4, §5

Lewis lung cancer = conditions: for Anti-tumor activity compared with harmine (compound 1): Lewis lung cancer in mice, among 22 compounds tested; for Body weight of the animals, end, First time / Body weight of the animals, beginning, First time / Inhibition rate, First time / Weight of the tumor X ± SD, First time / Inhibition rate (%) Lewis cancer: Lewis lung cancer; for Body weight of the animals, end, First time: ip × 10qd; for Inhibition rate (%) Lewis cancer: comparison table 43, in vivo
Source text: There was one group of 8 to 10 mice C57BL/6 and Kunming mice for the anti-tumor tests and two groups of mice for negative control.
(3) Sources of tumors: Lewis lung cancer cells and S180 sarcoma in mice, which were sub-cultured and maintained by Pharmacological Center of Shanghai Pharmaceutical Industrial Research Institute.
All samples were weighed and added a small amount of Tween-80 to facilitate dissolution during the experiment, and then 0.5% CMC-Na solution was gradually added to achieve the desired concentration. The volume for experiment was 0.5 ml/20 g mouse.
The medicaments were intraperitoneally administered once a day continuously for 10 days.
For the negative control group, a vehicle of the same volume was intraperitoneally administered once a day continuously for 10 days. For the positive control group, CTX was administered in the dosage of 30 mg/kg once a day continuously for 7 days.
In vivo anti-tumor subcutaneous vaccination in the axilla was employed. Wildly grown tumor source was taken under sterile conditions to form a cell suspension of about 1×10^7 ml by homogenization method. For a corresponding mouse host, the suspension was injected in the axilla in an amount of 0.2 ml/mouse. The next day, the medicaments were administered according to the design of the tests. About three weeks later, all the groups of animals were executed. The tumors were taken from the animals and weighed. The inhibition rate of tumors was calculated according to the following formula:
T: average tumor weight of treated group; C: average tumor weight of negative control group.

Bel-7402 = assay: In vitro cytotoxicity, IC50 by MTT method, Bel-7402; format: cell-based; conditions: Homo sapiens, Bel-7402
Procedure: as §1, §2, §3, §4, §5
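Wherever Anti-tumor activity compared with harmine (compound 1) is given: mice implanted subcutaneously in the axilla with Lewis lung tumor cells, treated starting the following day, killed roughly three weeks after implantation.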
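Wherever Inhibition rate (%) Lewis cancer is given: mice implanted subcutaneously in the axilla with Lewis lung tumor cells, treated starting the following day, killed roughly three weeks after implantation.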

## COC(=O)c1cc2c([nH]c3ccccc32)c(-c2ccccc2)n1 [Compound 14, methyl 1-phenyl-β-carboline-3-carboxylate]
NIH3T3; NIH3T3, MTT, read-out: IC50
  IC50: 490 µM
PLA-801; PLA-801, MTT, read-out: IC50
  IC50: 1.9 mM
S180 sarcoma; Dosage 50 (mg/ml)
  Body weight of the animals, beginning, First time: 19.8 g
  Body weight of the animals, end, First time: 26.7 g
  Inhibition rate, First time: 24.43%
  Weight of the tumor X ± SD, First time: 1.98 ± 0.28 g
S180 sarcoma; Dosage 100 (mg/ml)
  Body weight of the animals, beginning, First time: 19.9 g
  Body weight of the animals, end, First time: 25.5 g
  Inhibition rate, First time: 32.06%
  Weight of the tumor X ± SD, First time: 1.78 ± 0.20 g
S180 sarcoma
  Inhibition rate (%) S180 sarcomata: 34.16%
Lovo; Lovo, MTT, read-out: IC50
  IC50: 2.48 mM
HepG2; HepG2, MTT, read-out: IC50
  IC50: 1.18 mM
Hela; Hela, MTT, read-out: IC50
  IC50: 320 µM
BGC-823; BGC823, MTT, read-out: IC50
  IC50: 1.68 mM
Lewis lung cancer
  Anti-tumor activity compared with harmine (compound 1): a little worse than or equivalent to that of harmines
  Inhibition rate (%) Lewis cancer: 32.06%
Lewis lung cancer; Dosage 50 (mg/ml)
  Body weight of the animals, end, First time: 23.8 g
Lewis lung cancer; Dosage 50, ip × 10qd
  Body weight of the animals, beginning, First time: 20.1 g
  Inhibition rate, First time: 27.57%
  Weight of the tumor X ± SD, First time: 1.76 ± 0.25 g
Lewis lung cancer; Dosage 100 (mg/ml)
  Body weight of the animals, end, First time: 23.1 g
Lewis lung cancer; Dosage 100, ip × 10qd
  Body weight of the animals, beginning, First time: 20.7 g
  Inhibition rate, First time: 34.16%
  Weight of the tumor X ± SD, First time: 1.60 ± 0.19 g
Bel-7402; BeI7402, MTT, read-out: IC50
  IC50: > 5 mM

## COC(=O)c1cc2c([nH]c3ccccc32)c(-c2ccc(OC)cc2)n1 [Compound 15, methyl 1-(4-methoxyphenyl)-β-carboline-3-carboxylate]
NIH3T3; NIH3T3, MTT, read-out: IC50
  IC50: > 3000 µM
PLA-801; PLA-801, MTT, read-out: IC50
  IC50: > 3 mM
S180 sarcoma; Dosage 50 (mg/ml)
  Body weight of the animals, beginning, First time: 19.8 g
  Body weight of the animals, end, First time: 26.4 g
  Inhibition rate, First time: 23.66%
  Weight of the tumor X ± SD, First time: 2.00 ± 0.16 g
S180 sarcoma; Dosage 100 (mg/ml)
  Body weight of the animals, beginning, First time: 19.9 g
  Body weight of the animals, end, First time: 26.0 g
  Inhibition rate, First time: 35.50%
  Weight of the tumor X ± SD, First time: 1.69 ± 0.16 g
S180 sarcoma
  Inhibition rate (%) S180 sarcomata: 32.10%
Lovo; Lovo, MTT, read-out: IC50
  IC50: > 3 mM
HepG2; HepG2, MTT, read-out: IC50
  IC50: > 3 mM
Hela; Hela, MTT, read-out: IC50
  IC50: > 3000 µM
BGC-823; BGC823, MTT, read-out: IC50
  IC50: > 3 mM
Lewis lung cancer
  Anti-tumor activity compared with harmine (compound 1): a little worse than or equivalent to that of harmines
  Inhibition rate (%) Lewis cancer: 35.50%
Lewis lung cancer; Dosage 50 (mg/ml)
  Body weight of the animals, end, First time: 23.9 g
Lewis lung cancer; Dosage 50, ip × 10qd
  Body weight of the animals, beginning, First time: 20.4 g
  Inhibition rate, First time: 25.51%
  Weight of the tumor X ± SD, First time: 1.81 ± 0.28 g
Lewis lung cancer; Dosage 100 (mg/ml)
  Body weight of the animals, end, First time: 24.0 g
Lewis lung cancer; Dosage 100, ip × 10qd
  Body weight of the animals, beginning, First time: 20.3 g
  Inhibition rate, First time: 32.10%
  Weight of the tumor X ± SD, First time: 1.65 ± 0.17 g
Bel-7402; BeI7402, MTT, read-out: IC50
  IC50: > 3 mM

## CCOC(=O)c1cc2c3ccccc3n(CC)c2cn1 [Compound 31, ethyl 9-ethyl-β-carboline-3-carboxylate]
NIH3T3; NIH3T3 cell strain, read-out: IC50 NIH3T3
  IC50: 100 µM
PLA-801; PLA-801 cell strain, read-out: IC50 PLA-801
  IC50: 0.17 mM
S180 sarcoma; Dosage 50 (mg/ml)
  Body weight of the animals, beginning, First time: 19.7 g
  Body weight of the animals, end, First time: 26.7 g
  Inhibition rate, First time: 28.04%
  Weight of the tumor X ± SD, First time: 1.88 ± 0.21 g
S180 sarcoma; Dosage 100 (mg/ml)
  Body weight of the animals, beginning, First time: 20.0 g
  Body weight of the animals, end, First time: 26.1 g
  Inhibition rate, First time: 37.02%
  Weight of the tumor X ± SD, First time: 1.65 ± 0.16 g
S180 sarcoma
  Inhibition rate (%) S180 sarcomata: 36.21%
Lovo; Lovo cell strain, read-out: IC50 Lovo
  IC50: 0.07 mM
HepG2; HepG2 cell strain, read-out: IC50 HepG2
  IC50: 0.11 mM
Hela; Hela cell strain, read-out: IC50 Hela
  IC50: 140 µM
BGC-823; BGC823 cell strain, read-out: IC50 BGC823
  IC50: 0.14 mM
Lewis lung cancer; Dosage 50 (mg/ml)
  Body weight of the animals, end, First time: 24.3 g
Lewis lung cancer; Dosage 50, ip × 10qd
  Body weight of the animals, beginning, First time: 20.6 g
  Inhibition rate, First time: 30.04%
  Weight of the tumor X ± SD, First time: 1.70 ± 0.12 g
Lewis lung cancer; Dosage 100 (mg/ml)
  Body weight of the animals, end, First time: 23.7 g
Lewis lung cancer; Dosage 100, ip × 10qd
  Body weight of the animals, beginning, First time: 20.5 g
  Inhibition rate, First time: 36.21%
  Weight of the tumor X ± SD, First time: 1.55 ± 0.22 g
Lewis lung cancer
  Inhibition rate (%) Lewis cancer: 37.02%
Bel-7402; Bel7402 cell strain, read-out: IC50 Bel7402
  IC50: 0.26 mM
